From patent US5922707A, “Oxazolidinone antibacterial agent with tricyclic substituents” (Pharmacia & Upjohn Company, priority 1997, dated 1999) come the findings set out here.

Common to all, as to type: cell-based
For experiment [1], the system named is Staphylococcus aureus UC ® No. 9213. The experiment in a line: In vitro antimicrobial activity, MIC by agar dilution, S. aureus 9213. To be noted: UC9213, Mueller Hinton agar + 1% Supplement C, 35° C., 18 hours, read-out: Minimum inhibitory concentration (MIC), S. a. 9213. On the procedure: (§1) Antimicrobial activity was tested in vitro using the procedure described in National Committee for Clinical Laboratory Standards. Methods for dilution antimicrobial susceptibility tests for bacteria that grow aerobically--third edition; Approved Standard. NCCLS Document M7-A3. Villanova, Pa.: NCCLS; 1993. Minimum inhibitory concentration (MIC) values were determined by an agar dilution method (1) in which the test medium was Mueller Hinton agar (MHA; Difco Laboratories, Detroit, Mich.) supplemented with 1% Supplement C (Difco). Serial two-fold dilutions of each compound were prepared using 1.0 ml volumes of sterile distilled water. To each 1.0 ml aliquot was added 9.0 ml of molten agar medium. The drug-supplemented agar was mixed, poured into 15×100 mm petri dishes, and allowed to solidify and dry at room temperature prior to inoculation. The test cultures were grown aerobically overnight at 35° C. on MHA; streptococcal strains were grown on Trypticase Soy Blood Agar Base EH (Difco) supplemented with 5% defibrinated sheep blood (BBL, Becton Dickinson Company, Cockeysville, Md.). Colonies were harvested with a sterile swab, and cell suspensions were prepared in Trypticase Soy Broth (TSB; Becton Dickinson Company) to equal the turbidity of a 0.5 McFarland standard. A 1:19 dilution of the suspension was made in TSB; this diluted suspension constituted the inoculum for the assay. The plates containing the drug-supplemented agar were inoculated with a 0.001 ml drop of the cell suspensions using a Steers replicator (Melrose Machine Shop, Woodlyn, Pa.), yielding approximately 10^4 -10^5 cells per spot. The plates were incubated aerobically at 35° C. for 18 hours and the MIC was read as the lowest concentration of drug that inhibited visible growth of the organism. The growth of a single colony was considered to be negative.

Experiment [2] deals with Staphylococcus aureus UC ® No. 6685. Nature of the experiment: In vitro antimicrobial activity, MIC by agar dilution, S. aureus 6685. Conditions: UC6685, Mueller Hinton agar + 1% Supplement C, 35° C., 18 hours, read-out: Minimum inhibitory concentration (MIC), S. a. 6685. The method, then: as §1
(In agar dilution the substance is mixed into plates at graded concentrations.)

The test system of experiment [3] is Streptococcus Pneumoniae UC ® No. 9912. The experiment in a line: In vitro antimicrobial activity, MIC by agar dilution, S. pneumoniae 9912. To be noted: UC9912, Mueller Hinton agar + 1% Supplement C, 35° C., 18 hours, read-out: Minimum inhibitory concentration (MIC), S. p. 9912. The method, then: as §1

For `CC(=O)NC[C@H]1CN(c2ccc3c(c2)OC[C@H]2CCCCN32)C(=O)O1` [Example 9a, (R)-N-[[[1,2,3,4,4a, 5-hexahydropyridino[2,1-c][1, 4]benzoxazin-8-yl]-2-oxo-5-(S)-oxazolidinyl]methyl]-acetamide], the results for the MIC in experiment [1], in experiment [2] and in experiment [3] were 16 µg/mL, 8 µg/mL and 2 µg/mL, respectively.

In the case of `CC(=O)NC[C@H]1CN(c2ccc3c(c2)OC[C@H]2CN(C(=O)OCc4ccccc4)CCN32)C(=O)O1` [Example 7a, (R)-8-[5-(S)-[(acetylamino)methyl]-2-oxo-3-oxazolidinyl]-1,2,4a, 5-tetrahydropyrazino[2,1-c][1,4]benzoxazin-3(4 H)-carboxylic acid phenylmethyl ester], the MIC in experiment [1] came out at 8 µg/mL; in experiment [2] it was 4 µg/mL; in experiment [3] it was 1 µg/mL.

As to `CC(=O)NC[C@H]1CN(c2ccc3c(c2)OCC2CN(C(=O)CO)CCN32)C(=O)O1` (stereo partly drawn) [Example 4], the values for the MIC in experiment [1], in experiment [2] and in experiment [3] were 8 µg/mL, 8 µg/mL and 1 µg/mL, respectively.

Regarding `COC(=O)N1CCN2c3ccc(N4C[C@H](CNC(C)=O)OC4=O)cc3OC[C@H]2C1` [Example 8a, (R)-8-[5-(S)-[(acetylamino)methyl]-2-oxo-3-oxazolidinyl]-1,2,4a, 5-tetrahydropyrazino[2,1-c] [1, 4]benzoxazine-3(4 H)-carboxylic acid methyl ester], the MIC amounted to 4 µg/mL in experiment [1], 4 µg/mL in experiment [2] and 0.5 µg/mL in experiment [3].

As for `CC(=O)NC[C@H]1CN(c2ccc3c(c2)OCC2CN(C(=O)c4ccno4)CCN32)C(=O)O1` (stereo partly drawn) [Example 5, N-[[3-[1,2,3,4,4a, 5-Hexahydro-3-(5-isoxazolylcarbonyl)pyrazino[2,1-c] [1, 4]benzoxazin-8-yl]-2-oxo-5-(S)-oxazolidinyl]methyl]-acetamide], the figures for the MIC in experiment [1], in experiment [2] and in experiment [3] were 4 µg/mL, 2 µg/mL and below 0.5 µg/mL, respectively.

On to `CC(=O)NC[C@H]1CN(c2ccc3c(c2)OCC2CN(C(=O)COCc4ccccc4)CCN32)C(=O)O1` (stereo partly drawn) [Example 2, N-[[3-[1,2,3,4,4a, 5-Hexahydro-3-[(phenylmethoxy)acetyl]pyrazino[2,1-c] [1, 4]benzoxazin-8-yl]-2-oxo-5-(S)-oxazolidinyl]methyl]-acetamide], for which the MIC in experiment [1] was 8 µg/mL; in experiment [2], 8 µg/mL; in experiment [3], 2 µg/mL.

Turning to `CC(=O)NC[C@H]1CN(c2ccc3c(c2)OCC2CN(C(=O)OCc4ccccc4)CCN32)C(=O)O1` (stereo partly drawn) [Example 1, 8-[5-(S)-[(acetylamino)methyl]-2-oxo-3-oxazolidinyl]-1,2,4a, 5-tetrahydropyrazino[2,1-c] [1, 4]benzoxazine-3(4 H)-carboxylic acid phenylmethyl ester], the MIC in experiment [1] was determined as 8 µg/mL; in experiment [2] it was 4 µg/mL; in experiment [3], 1 µg/mL.

For `COC(=O)N1CCN2c3ccc(N4C[C@H](CNC(C)=O)OC4=O)cc3OCC2C1` (stereo partly drawn) [Example 3, 8-[5-(S)-[(Acetylamino)methyl]-2-oxo-3-oxazolidinyl]-1,2,4a, 5-tetrahydropyrazino[2,1-c] [1, 4]benzoxazine-3(4 H)-carboxylic acid methyl ester], the MIC in experiment [1] is 8 µg/mL; in experiment [2], 4 µg/mL; in experiment [3], 1 µg/mL.

As to `CC(=O)NC[C@H]1CN(c2ccc3c(c2)OCC2CN(C(=O)c4cc5ccccc5[nH]4)CCN32)C(=O)O1` (stereo partly drawn) [Example 6, N-[[3-[1,2,3,4,4a, 5-hexahydro-3-(1 H-indol-2-ylcarbonyl)pyrazino[2,1-c] [1, 4]benzoxazin-8-yl]-2-oxo-5-(S)-oxazolidinyl]methyl]-acetamide], the MIC in experiment [1] is 8 µg/mL; in experiment [2], 4 µg/mL; in experiment [3] it was 1 µg/mL.

For the molecule `COC(=O)N1CCN2c3ccc(N4C[C@H](CNC(C)=O)OC4=O)cc3OC[C@@H]2C1` [Example 8b, (S)-8-[5-(S)-[(acetylamino)methyl]-2-oxo-3-oxazolidinyl]-1,2,4a, 5-tetrahydropyrazino[2,1-c] [1, 4]benzoxazine-3(4 H)-carboxylic acid methyl ester], the MIC in experiment [1] came out at 8 µg/mL; in experiment [2], 8 µg/mL; in experiment [3], 2 µg/mL.

As for `CC(=O)NC[C@H]1CN(c2ccc3c(c2)OC[C@@H]2CCCCN32)C(=O)O1` [Example 9b, (S)-N-[[[1,2,3,4,4a, 5-hexahydropyridino[2,1-c][1, 4]benzoxazin-8-yl]-2-oxo-5-(S)-oxazolidinyl]methyl]-acetamide], the MIC in experiment [1] amounted to 8 µg/mL; in experiment [2], 4 µg/mL; in experiment [3], 2 µg/mL.

For the molecule `CC(=O)NC[C@H]1CN(c2ccc3c(c2)OC[C@@H]2CN(C(=O)OCc4ccccc4)CCN32)C(=O)O1` [Example 7b, (S)-8-[5-(S)-[(acetylamino)methyl]-2-oxo-3-oxazolidinyl]-1,2,4a, 5-tetrahydropyrazino[2,1-c][1,4]benzoxazin-3(4H)-carboxylic acid phenylmethyl ester], the MIC in experiment [1] came to 8 µg/mL; in experiment [2] it was 8 µg/mL; in experiment [3], 2 µg/mL.
